pIC50: −log10 of the molar value.
How the values were obtained:
[1] = Binding in brain homogenate from rat (equilibrium dialysis); format: in vitro ADME; conditions: fraction unbound, rat brain homogenates
Description: Binding in plasma from rat and human.
Determination of compounds’ fraction unbound (f u) in plasma from rat and human was conducted in vitro via equilibrium dialysis using HTDialysis membrane plates. Dialysis membranes (four paired strips per HTD assay) were hydrated as described by the manufacturer and inserted into the HTD plate, which was assembled and prepared for sample addition by the dispensing of blank buffer (DPBS, 100 µL/well) into the ‘top half’ of each membrane-split well. Each compound was diluted into plasma from each species (5 µM final concentration), which was aliquoted in triplicate to the ‘bottom half’ of the prepared HTD plate wells. […] Supernatant (60 µL) from each well of the daughter plates was then transferred to the corresponding wells of new daughter plates (96-shallow-well, V bottom) containing water (Milli-Q, 60 µL/well), and the plates were sealed in preparation for LC-MS/MS analysis (see below). fu was calculated as (analyte to IS MS peak area ratio from Trans-buffer side) / (analyte to IS MS peak area ratio from Cis-plasma side). Mean values for each species were calculated from 3 replicates. […]
The diluted fraction unbound (f u2) in brain was calculated as (analyte to IS MS peak area ratio from Trans-buffer side) / (analyte to IS MS peak area ratio from Cis-brain homogenate side). […]
Mean values for each species were calculated from 3 replicates.

CYP2C9 = target: T1, CYP2C9 (Homo sapiens, UniProt P11712); assay: Cytochrome P450 inhibition using human liver microsomes, CYP2C9; format: in vitro ADME; conditions: read-out: CYP 450 IC50, 2C9
T1 construct: from tissue; host or cells: human liver microsomes

[2] = Rat IV/PO pharmacokinetics; format: in vivo, Sprague-Dawley rat; conditions: plasma, IV 1 mg/kg; for MRT / clearance / half-life / Vd: male Sprague-Dawley rats (n = 2); for clearance: read-out: CLp; for half-life: read-out: Elim. t 1/2 (converted); for Vd: read-out: V ss
Description: (1700 rcf, 5 minutes, 4 °C) to obtain plasma sample. […]
All brain and plasma samples were stored at -80 °C until analysis by LC-MS/MS.
Male Sprague-Dawley rats were used for discrete pharmacokinetic studies. Compounds in ethanol:
PEG400: saline (1:4:5 v/v/v) were administered intra-venously in two rats at 1 mg/kg (IV PK). Two rats were also gavaged at 10 mg/kg with compounds in 10% Tween 80 in water (PO PK). Blood samples were collected from all […] at […] different time points post-dose (0.25, 0.50, 1.0, 2.0, 4.0, 7.0 and 24 hr) and plasma was prepared as described above. The concentration of compounds in plasma was quantified by LC/MS/MS as described below.
The IV PK experiment was used to determine clearance, Volume of distribution and half-life. The PO experiments were used to determine exposure and oral bioavailability. PK parameters were calculated using Phoenix WinNonlin software (version 8.1).
Samples preparation for bioanalysis
Plasma samples from the in-life phase of the study were thawed at ambient temperature (benchtop), and then aliquots (20 µL per sample) were transferred to a 96-shallow-well (V-bottom) plate. Matrix-matched quality control (QC) samples and standard curves of VU6031545 and VU6024945 (1 mg/mL DMSO stock solution) were prepared in blank rat plasma (K2EDTA-treated) or blank brain homogenate via serial dilution and transferred (20 µL each) to the plate along with multiple blank plasma and brain homogenate samples. Acetonitrile (120 µL) containing IS (10 nM carbamazepine) was added to each well of the plate to precipitate protein. The plate was then centrifuged (4000 rcf, 5 minutes, ambient temperature), and resulting supernatants (60 µL each) were transferred to a new 96-shallow-well (V-bottom) plate containing an equal volume (60 µL per well) of water (Milli-Q purified). The plate was then sealed in preparation for LC-MS/MS analysis. […]

CYP2D6 = target: T2, CYP2D6 (Homo sapiens, UniProt P10635); assay: Cytochrome P450 inhibition using human liver microsomes, CYP2D6; format: in vitro ADME; conditions: read-out: CYP 450 IC50, 2D6
T2 construct: from tissue; host or cells: human liver microsomes
Description: Cytochrome P450 inhibition using Liver Microsomes.
The ability of compounds to inhibit cytochrome P450s (CYPs) was tested using human liver microsomes and a cocktail of substrates specific for CYP1A2, 2C9, 2D6 and 3A4. Compounds were incubated at 37C in presence of human liver microsomes (0.1 mg/ml) at 30, 10, 3, 1, 0.3 and 0.1 µM. A cocktail of substrate was also added for each CYP tested: phenacetin (10 µM, CYP1A2), diclofenac (5 µM, CYP2C9), dextromethorphan (5 µM, CYP2D6) and midazolam (2 µM, CYP3A4). HLM were also incubated with the control inhibitor miconazole at 3, 1, 0.3, 0.1, 0.03 and 0.01 µM. […]
The concentrations of CYP-specific metabolites generated at the end of the reaction were quantified by mass spectrometry using standard curves for each metabolite: acetaminophen (CYP1A2), 4-hydroxydiclofenac (CYP2C9), dextrophan (CYP2D6) and 1-hydroxymidazolam (CYP3A4). A concentration response curve for each metabolite was generated and IC50s were calculated using Prism. The LC-MS/MS transitions for metabolite quantifications are as follows. […]
Prepared samples were injected (10 µL each) onto an AB Sciex Triple Quad 4500 mass spectrometer system with an Agilent 1260 Infinity II pump and autosampler. […] Quantitation of compounds was performed via AB Sciex Multiquant software using the raw analyte:IS peak area ratios. […]

[3] = male Sprague-Dawley rats, PO 10 mg/kg, read-out: %F (oral bioavailability)

T1 sequence (P11712 whole entry): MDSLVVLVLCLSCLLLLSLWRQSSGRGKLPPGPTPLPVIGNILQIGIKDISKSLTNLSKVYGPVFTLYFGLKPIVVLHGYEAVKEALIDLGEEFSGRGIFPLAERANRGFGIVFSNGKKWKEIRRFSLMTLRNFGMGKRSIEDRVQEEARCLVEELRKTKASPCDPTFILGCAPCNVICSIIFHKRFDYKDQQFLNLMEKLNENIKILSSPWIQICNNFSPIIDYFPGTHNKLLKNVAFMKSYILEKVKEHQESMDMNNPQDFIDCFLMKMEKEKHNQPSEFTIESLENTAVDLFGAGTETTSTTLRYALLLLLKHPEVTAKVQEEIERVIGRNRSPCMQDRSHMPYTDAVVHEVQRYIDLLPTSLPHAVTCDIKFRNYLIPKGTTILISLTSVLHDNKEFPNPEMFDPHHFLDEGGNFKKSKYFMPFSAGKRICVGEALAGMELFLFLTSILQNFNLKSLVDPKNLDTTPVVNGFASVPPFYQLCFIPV
T2 sequence (P10635 whole entry): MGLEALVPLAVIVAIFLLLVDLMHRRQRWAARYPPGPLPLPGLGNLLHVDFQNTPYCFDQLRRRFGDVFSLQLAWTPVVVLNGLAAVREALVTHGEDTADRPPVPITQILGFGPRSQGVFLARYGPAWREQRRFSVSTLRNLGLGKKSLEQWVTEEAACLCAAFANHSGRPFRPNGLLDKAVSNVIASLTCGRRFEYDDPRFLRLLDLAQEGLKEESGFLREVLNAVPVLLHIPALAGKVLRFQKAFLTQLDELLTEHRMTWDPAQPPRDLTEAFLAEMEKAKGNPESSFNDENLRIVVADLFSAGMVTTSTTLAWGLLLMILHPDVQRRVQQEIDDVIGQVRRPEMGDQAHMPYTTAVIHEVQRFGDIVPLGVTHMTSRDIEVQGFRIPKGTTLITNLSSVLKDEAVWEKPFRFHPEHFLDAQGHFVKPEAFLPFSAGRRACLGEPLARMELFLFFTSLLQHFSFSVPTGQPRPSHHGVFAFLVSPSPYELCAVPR

| Structure (SMILES) | Rat f u,brain [1] | pIC50 (CYP2C9) | MRT [2] [h] | clearance [2] [mL/min/kg] | half-life [2] [h] | Vd [2] [L/kg] | bioavailability [2, 3] [%] | pIC50 (CYP2D6) | bioavailability at 24 h [2, 3] [%] |
| --- | --- | --- | --- | --- | --- | --- | --- | --- | --- |
| Cc1csc(NC(=O)c2cc(O[C@@H]3CCOC3)c3sccc3n2)n1 [19aA] | 0.009 | < 4.52 | 2.45 | 49.3 | 3.42 | 6.67 | > 100 | < 4.52 | – |
| Cc1csc(NC(=O)c2cc(O[C@@H]3CCOC3)cc(F)c2F)n1 [27cA] | 0.051 | < 4.52 | 1.44 | 31.3 | 1.78 | 2.89 | 17 | < 4.52 | 16.6 |

From paper PMC12067350, “Discovery of Thieno[3,2‑b]pyridine-5-carboxamide and 2,3-Difluorobenzamide Negative Allosteric Modulators of Metabotropic Glutamate Receptor Subtype 5” (ACS Medicinal Chemistry Letters, 2025)
